We go through 4 compounds from PMC8270262 (Molecules, 2021).

One may read the IC50 as the concentration at which inhibition is half-maximal.

Entries after “also recorded” stand apart in the source; their conditions may differ.

Assay [1] has as its system DENV protease. The settings on record: enzyme concentration 1 μM; cited from earlier work.
Assay [2] has as its system WNF protease. The settings on record: cited from earlier work.
Assay [3] has as its target SARS-CoV-2 PL^pro (Severe acute respiratory syndrome coronavirus 2, UniProt P0DTD1). The experiment in a line: biochemical.

With Aprotinin, the IC50 in assay [1] is 65 nM; in assay [2], 20 nM.

Consider `CCN(CC)C(=S)SSC(=S)N(CC)CC` [Antabuse], for which the “Effect of reducing agent on PLpro inhibition (in words)” value in assay [3] is “significantly increases the IC50 values”.

As for `Sc1ncc2[nH]cnc2n1` [2-MP, 2-mercaptopurine], in assay [3], the “Effect of reducing agent on PLpro inhibition (in words)” value was “diminished; also recorded: significantly increases the IC50 values” and inhibition was half-maximal at 820 ± 600 nM (IC50).

For the compound `Sc1ncnc2nc[nH]c12` [6-MP, 6-mercaptopurine], the IC50 in assay [3] was about 66000 nM.
